From PubChem BioAssay AID248 (DTP/NCI, 2004)
Values joined by “and” are separate entries in the source; they are usually repeats but may differ in a detail not shown here. Identical values can stand only once. Inconclusive results and toxic doses are left out. Rule as the data show it: active = T/C of 150% or more; inactive = T/C below 125%.

Tested on: L1210 leukemia ip in BDF1 mice, survival T/C
Test: NCI In Vivo Anticancer Drug Screen. Data for tumor model L1210 Leukemia (intraperitoneal) in B6D2F1 (BDF1) mice
Details: endpoint: mean survival time, higher = longer survival
Summary of the method: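 Survival endpoint. Drug-treated group vs vehicle group, expressed as T divided by C. Tumor passaged by transplantation.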

[1] = dose: 100.0 mg/kg/injection, schedule: Q04DX002 (ip), vehicle: Klucel (hydroxypropylcellulose) (HPC)
[2] = dose: 100.0 mg/kg/injection, schedule: Q01DX001 (ip), vehicle: saline
[3] = dose: 200.0 mg/kg/injection, schedule: Q01DX001 (ip), vehicle: saline
[4] = dose: 100.0 mg/kg/injection, schedule: Q04DX002 (ip), vehicle: saline with Tween-80
[5] = dose: 200.0 mg/kg/injection, schedule: Q04DX002 (ip), vehicle: saline with Tween-80
[6] = dose: 100.0 mg/kg/injection, schedule: Q04DX003 (ip), vehicle: Klucel (hydroxypropylcellulose) (HPC)
[7] = dose: 200.0 mg/kg/injection, schedule: Q04DX003 (ip), vehicle: Klucel (hydroxypropylcellulose) (HPC)
[8] = dose: 400.0 mg/kg/injection, schedule: Q04DX003 (ip), vehicle: Klucel (hydroxypropylcellulose) (HPC)
[9] = dose: 25.0 mg/kg/injection, schedule: Q01DX009 (ip), vehicle: Klucel (hydroxypropylcellulose) (HPC)
[10] = dose: 50.0 mg/kg/injection, schedule: Q01DX009 (ip), vehicle: Klucel (hydroxypropylcellulose) (HPC)
[11] = dose: 100.0 mg/kg/injection, schedule: Q01DX009 (ip), vehicle: Klucel (hydroxypropylcellulose) (HPC)
[12] = dose: 100.0 mg/kg/injection, schedule: Q04DX003 (ip), vehicle: saline with Tween-80
[13] = dose: 200.0 mg/kg/injection, schedule: Q04DX003 (ip), vehicle: saline with Tween-80
[14] = dose: 400.0 mg/kg/injection, schedule: Q04DX003 (ip), vehicle: saline with Tween-80
[15] = dose: 100.0 mg/kg/injection, schedule: Q01DX001 (ip), vehicle: carboxymethylcellulose (CMC)
[16] = dose: 200.0 mg/kg/injection, schedule: Q01DX001 (ip), vehicle: carboxymethylcellulose (CMC)
[17] = dose: 400.0 mg/kg/injection, schedule: Q01DX001 (ip), vehicle: carboxymethylcellulose (CMC)
[18] = dose: 100.0 mg/kg/injection, schedule: Q01DX009 (ip), vehicle: saline with Tween-80
[19] = dose: 200.0 mg/kg/injection, schedule: Q01DX009 (ip), vehicle: saline with Tween-80
[20] = dose: 200.0 mg/kg/injection, schedule: Q04DX002 (ip), vehicle: Klucel (hydroxypropylcellulose) (HPC)

Measured: T/C

O=C(O)c1cccc(Cl)c1.[Ni]
inactive: dose: 25.0 mg/kg/injection, schedule: Q04DX002 (ip), vehicle: Klucel (hydroxypropylcellulose) (HPC) 103 % of control | dose: 50.0 mg/kg/injection, schedule: Q04DX002 (ip), vehicle: Klucel (hydroxypropylcellulose) (HPC) 100 % of control | [1] 90 % of control

S=c1[nH]n(-c2ccccc2)c(=S)s1
inactive: [2] 100 % of control | [3] 105 % of control

O=C1CC2(CCCCC2)C(=O)N1
inactive: dose: 5.0 mg/kg/injection, schedule: Q04DX003 (ip), vehicle: saline with Tween-80 102 % of control | dose: 10.0 mg/kg/injection, schedule: Q04DX003 (ip), vehicle: saline with Tween-80 102 % of control | dose: 20.0 mg/kg/injection, schedule: Q04DX003 (ip), vehicle: saline with Tween-80 102 % of control

Cn1cc(C(C)(C(=O)O)c2cn(C)c3ccccc23)c2ccccc21
inactive: [2] 104 % of control | [3] 102 % of control | dose: 400.0 mg/kg/injection, schedule: Q01DX001 (ip), vehicle: saline 102 % of control

O=C1NC(=O)N(c2ccc(Cl)cc2)C1=O
inactive: [4] 111 % of control | [5] 90 % of control

CCCCCCCCCCCCCCCOc1ccc(C)cc1
inactive: [6] 93 % of control | [7] 101 % of control | [8] 95 % of control

N/C(Cc1ccc([N+](=O)[O-])cc1)=N\O
inactive: [9] 100 % of control | [10] 91 % of control | [11] 100 % of control

O=C(c1ccc(Br)cc1)C1C(c2ccccc2)N1C1CCCCC1 (stereo not drawn)
inactive: [6] 98 % of control | [7] 96 % of control | [8] 93 % of control

CC1(C)CCCC2(C)C3Cc4occc4C(C(=O)O)C3C(O)C(O)C12 (stereo not drawn)
inactive: [12] 106 % of control | [13] 109 % of control | [14] 98 % of control

CC(=O)c1ccc(S(=O)(=O)NCCCc2c(C)nc(NS(=O)(=O)c3ccc(C(C)=O)cc3)[nH]c2=O)cc1
inactive: [15] 98 % of control | [16] 96 % of control | [17] 93 % of control

O=c1c2ccccc2nnn1-c1ccccc1Cl
inactive: dose: 100.0 mg/kg/injection, schedule: Q01DX009 (ip), vehicle: saline 105 % of control | dose: 200.0 mg/kg/injection, schedule: Q01DX009 (ip), vehicle: saline 103 % of control | dose: 400.0 mg/kg/injection, schedule: Q01DX009 (ip), vehicle: saline 89 % of control

COc1ccc(NC(=O)C2C3C=CC(C3)C2C(=O)O)cc1 (stereo not drawn)
inactive: dose: 50.0 mg/kg/injection, schedule: Q01DX009 (ip), vehicle: saline with Tween-80 98 % of control | [18] 100 % of control | [19] 100 % of control

CC(=O)OC1C(CF)OC(n2ccc(=O)[nH]c2=O)C1OC(C)=O (stereo not drawn)
inactive: dose: 100.0 mg/kg/injection, schedule: Q01DX005 (ip), vehicle: saline 105 % of control | dose: 200.0 mg/kg/injection, schedule: Q01DX005 (ip), vehicle: saline 123 % of control

C#C/C(CCC)=N\Nc1ccc([N+](=O)[O-])cc1[N+](=O)[O-]
inactive: dose: 50.0 mg/kg/injection, schedule: Q04DX002 (ip), vehicle: saline with Tween-80 88 % of control | [4] 94 % of control | [5] 88 % of control

CC(C)(C)NC(=O)NCc1cccc(Cl)c1
inactive: [1] 100 % of control | [20] 107 % of control | dose: 400.0 mg/kg/injection, schedule: Q04DX002 (ip), vehicle: Klucel (hydroxypropylcellulose) (HPC) 96 % of control

CC1=CC(=O)N(N)C1=O
inactive: [18] 102 % of control | [12] 98 % of control | [19] 104 % of control | [13] 100 % of control | dose: 400.0 mg/kg/injection, schedule: Q01DX009 (ip), vehicle: saline with Tween-80 100 % of control | [14] 96 % of control

O=C(NCc1ccncc1)C(c1ccccc1)c1ccccc1
inactive: [1] 96 % of control | [20] 92 % of control

CCN(CC)CCNc1nc(N)c(C#N)c(C#N)c1C#N
inactive: [15] 96 % of control | [16] 94 % of control | [17] 96 % of control

CCN(CC)C(=S)SSC(=S)N(CC)CC
inactive: [9] 100 % of control | dose: 25.0 mg/kg/injection, schedule: Q04DX003 (ip), vehicle: Klucel (hydroxypropylcellulose) (HPC) 93 % of control | [10] 100 % of control | dose: 50.0 mg/kg/injection, schedule: Q04DX003 (ip), vehicle: Klucel (hydroxypropylcellulose) (HPC) 93 % of control | [11] 91 % of control | [6] 96 % of control and 98 % of control | dose: 200.0 mg/kg/injection, schedule: Q01DX009 (ip), vehicle: Klucel (hydroxypropylcellulose) (HPC) 98 % of control and 101 % of control | [7] 88 % of control and 91 % of control | dose: 400.0 mg/kg/injection, schedule: Q01DX009 (ip), vehicle: Klucel (hydroxypropylcellulose) (HPC) 96 % of control and 100 % of control | [8] 93 % of control and 96 % of control

C[C@]12CC[C@H](O)C[C@@H]1CC[C@@H]1[C@@H]2C(=O)C[C@]2(C)C3=CC(=O)O[C@H]3C[C@@H]12
inactive: dose: 5.0 mg/kg/injection, schedule: Q01DX Z (sc), vehicle: steriod suspending solution 94 % of control and 108 % of control | dose: 10.0 mg/kg/injection, schedule: Q01DX Z (sc), vehicle: steriod suspending solution 97 % of control and 100 % of control | dose: 20.0 mg/kg/injection, schedule: Q01DX Z (sc), vehicle: steriod suspending solution 94 % of control and 102 % of control | dose: 40.0 mg/kg/injection, schedule: Q01DX Z (sc), vehicle: steriod suspending solution 94 % of control and 96 % of control and 100 % of control | dose: 80.0 mg/kg/injection, schedule: Q01DX Z (sc), vehicle: steriod suspending solution 104 % of control | dose: 160.0 mg/kg/injection, schedule: Q01DX Z (sc), vehicle: steriod suspending solution 95 % of control | dose: 320.0 mg/kg/injection, schedule: Q01DX Z (sc), vehicle: steriod suspending solution 95 % of control | dose: 640.0 mg/kg/injection, schedule: Q01DX015 (sc), vehicle: steriod suspending solution 100 % of control | dose: 1280.0 mg/kg/injection, schedule: Q01DX015 (sc), vehicle: steriod suspending solution 96 % of control

CCOc1nc(C)cc(C(=O)O)c1C#N
inactive: dose: 75.0 mg/kg/injection, schedule: Q01DX001 (ip), vehicle: other 95 % of control | dose: 150.0 mg/kg/injection, schedule: Q01DX001 (ip), vehicle: other 100 % of control | dose: 300.0 mg/kg/injection, schedule: Q01DX001 (ip), vehicle: other 103 % of control

CS(=O)(=O)OCCN(CCOS(C)(=O)=O)c1ccc(C=Nc2ccc3ccccc3c2)c(Cl)c1
inactive: [6] 103 % of control and 107 % of control | [7] 113 % of control | [8] 118 % of control

O=P(CCCCCCP(=O)(N1CC1)N1CC1)(N1CC1)N1CC1
inactive: dose: 25.0 mg/kg/injection, schedule: Q01DX009 (ip), vehicle: carboxymethylcellulose (CMC) 112 % of control and 115 % of control | dose: 50.0 mg/kg/injection, schedule: Q01DX009 (ip), vehicle: carboxymethylcellulose (CMC) 120 % of control and 121 % of control | [15] 116 % of control | [16] 103 % of control | dose: 200.0 mg/kg/injection, schedule: Q01DX009 (ip), vehicle: carboxymethylcellulose (CMC) 98 % of control and 101 % of control
